Where two headings read alike, the source gives them in different places. Peptide text beside a SMILES is read from it.
Description: All subjects who met eligibility criteria were confined to the clinical research unit from […] through Day 3. At admission, physical examination, vital signs, 12 lead ECG and weight were obtained, medical and medication history were updated if necessary, safety blood tests (hematology and chemistry), urinalysis, urine drug screen and an alcohol breath test were repeated and a urine pregnancy test was done for women of childbearing potential.
At each dose level, there were 2 sentinel subjects, (1 active, 1 placebo), who were dosed at least 48 hours in advance of the other subjects in their respective group. Following review of safety data, including physical examination, vital signs, and review of adverse events from the first 2 subjects, enrolment in the cohort continued.
A 12-lead ECG was performed on Day 1, within 60 minutes of infusion start (in triplicate), mid-way through the infusion, at the completion of the infusion, 30 minutes after completion of the infusion and at various timepoints following the end of the infusion.
Vital signs were recorded within 60 minutes pre-dose, at the mid-point of the infusion and post dose vitals were assessed at completion of the infusion, 0.5, 1, 2, 3, 4, 6, 9, 12, 24 and 48 hours post dose, after at least 3 minutes of rest in supine position.
Subjects returned to the study center 7 days after dosing, for the termination visit. A full physical examination, vital signs and weight were obtained, concomitant medications were updated if necessary, safety blood specimens (haematology and chemistry, PT and aPTT) and urine were collected for urinalysis and urine drug screening. A serum pregnancy test was done for women of childbearing potential and a 12-lead ECG was performed.
In this study dose limiting toxicity (DLT) was defined as any drug related ≥Grade 3 AEs occurring despite optimal therapeutic interventions (which included but were not limited to allergic/hypersensitivity reactions, dermatological reactions/infusion site reactions, haematological toxicities such as neutropenia, thrombocytopenia and anaemia and clinical chemistry abnormalities) experienced up to Day 7 (Termination Visit).
(§1) All subjects who received any amount of study drug were included in the safety analysis (Safety population).
The study was a double blinded, randomized, placebo-controlled study. The placebo administered was 0.9% sodium chloride.
On Day 1 (day of dosing), subjects were randomly assigned either peptide IV or Placebo IV. At each dose level, there were 2 sentinel subjects, (1 active, 1 placebo), who were dosed at least 48 hours in advance of the other subjects in their respective group. Following review of safety data, including physical examination, vital signs, and review of adverse events from the first 2 subjects, enrolment in the cohort continued. All subjects who met eligibility criteria were confined to the clinical research unit from Day −2 through Day 3. At admission, physical examination, vital signs, 12 lead ECG and weight were obtained, medical and medication history were updated if necessary, safety blood tests (hematology and chemistry), urinalysis, urine drug screen and an alcohol breath test were repeated and a urine pregnancy test was done for women of childbearing potential.
as §1

[1] = Cohort 1: 0.05 mg/kg IV 1-hr infusion (N = 6)
[2] = Cohort 1: 0.05 mg/kg IV 1 hour infusion, subject 001-S008
[3] = Cohort 4 0.05 mg/kg IV 2-hr infusion, participant 001-S086

Structure (SMILES): CC(C)[C@H](NC(=O)[C@H](Cc1c[nH]c2ccccc12)NC(=O)[C@H](CCCNC(=N)N)NC(=O)[C@H](CCCNC(=N)N)NC(=O)[C@@H](NC(=O)[C@@H](NC(=O)[C@H](CCCNC(=N)N)NC(=O)[C@@H](NC(=O)[C@@H](NC(=O)[C@H](CCCNC(=N)N)NC(=O)[C@H](CCCNC(=N)N)NC(=O)[C@H](Cc1c[nH]c2ccccc12)NC(=O)[C@@H](NC(=O)[C@H](CCCNC(=N)N)NC(=O)[C@H](CCCNC(=N)N)NC(=O)[C@@H](NC(=O)[C@H](CCCNC(=N)N)NC(=O)[C@H](CCCNC(=N)N)NC(=O)[C@@H](NC(=O)[C@H](Cc1c[nH]c2ccccc12)NC(=O)[C@H](CCCNC(=N)N)NC(=O)[C@@H](N)CCCNC(=N)N)C(C)C)C(C)C)C(C)C)C(C)C)C(C)C)C(C)C)C(C)C)C(=O)N[C@@H](CCCNC(=N)N)C(=O)N[C@@H](CCCNC(=N)N)C(N)=O [SEQ ID NO: 1] (H-RRWVRRVRRVWRRVVRVVRRWVRR-NH2)
- Participants With At Least 1 TEAE, occurrences m [1]: 7
- Participants With At Least 1 Treatment-Related TEAE, n (%) [1]: 1 (16.7%)
- Participants With At Least 1 Treatment-Related TEAE, occurrences m [1]: 1
- TEAE Severity Grade 1, m [1]: 7
- TEAE Severity Grade 1, n (%) [1]: 5 (83.3%)
- TEAE Severity Grade 2, n (%) [1]: 0
- TEAE by system organ class: Blood and Lymphatic System Disorders, participants n (%) [1]: 0
- TEAE by system organ class: Gastrointestinal Disorders, occurrences m [1]: 1
- TEAE by system organ class: Gastrointestinal Disorders, participants n (%) [1]: 1 (16.7%)
- TEAE by system organ class: General Disorders and Administration Site Conditions, occurrences m [1]: 1
- TEAE by system organ class: General Disorders and Administration Site Conditions, participants n (%) [1]: 1 (16.7%)
- TEAE by system organ class: Infections and Infestations, participants n (%) [1]: 0
- TEAE by system organ class: Injury, Poisoning, and Procedural Complications, occurrences m [1]: 3
- TEAE by system organ class: Injury, Poisoning, and Procedural Complications, participants n (%) [1]: 3 (30.0%)
- TEAE by system organ class: Musculoskeletal and Connective Tissue Disorders, participants n (%) [1]: 0
- TEAE by system organ class: Nervous System Disorders, occurrences m [1]: 2
- TEAE by system organ class: Nervous System Disorders, participants n (%) [1]: 2 (33.3%)
- TEAE by system organ class: Respiratory, Thoracic, and Mediastinal disorders, participants n (%) [1]: 0
- TEAE by system organ class: Skin and Subcutaneous Tissue Disorders, participants n (%) [1]: 0
- TEAE by system organ class: Vascular Disorders, participants n (%) [1]: 0
- TEAE severity Grade 1, occurrences m [1]: 7
- TEAE severity Grade 1, participants n (%) [1]: 5 (83.3%)
- TEAE severity Grade 2, participants n (%) [1]: 0
- TEAE severity Grade 3, participants n (%) [1]: 0
- TEAE severity Grade 4, participants n (%) [1]: 0
- TEAE severity Grade 5, participants n (%) [1]: 0
- Treatment-related TEAE: Abdominal distension, participants n (%) [1]: 0
- Treatment-related TEAE: Blood and Lymphatic System Disorders, participants n (%) [1]: 0
- Treatment-related TEAE: Constipation, participants n (%) [1]: 0
- Treatment-related TEAE: Diarrhea, participants n (%) [1]: 0
- Treatment-related TEAE: Dizziness, participants n (%) [1]: 0
- Treatment-related TEAE: Feeling hot, participants n (%) [1]: 0
- Treatment-related TEAE: Gastrointestinal Disorders, participants n (%) [1]: 0
- Treatment-related TEAE: General Disorders and Administration Site Conditions, occurrences m [1]: 1
- Treatment-related TEAE: General Disorders and Administration Site Conditions, participants n (%) [1]: 1 (16.7%)
- Treatment-related TEAE: Headache, participants n (%) [1]: 0
- Treatment-related TEAE: Infusion related reaction, participants n (%) [1]: 0
- Treatment-related TEAE: Infusion site discomfort, participants n (%) [1]: 0
- Treatment-related TEAE: Infusion site pain, participants n (%) [1]: 0
- Treatment-related TEAE: Infusion site reaction, participants n (%) [1]: 0
- Treatment-related TEAE: Infusion site swelling, participants n (%) [1]: 0
- Treatment-related TEAE: Injury, Poisoning, and Procedural Complications, participants n (%) [1]: 0
- Treatment-related TEAE: Macule, participants n (%) [1]: 0
- Treatment-related TEAE: Musculoskeletal and Connective Tissue Disorders, participants n (%) [1]: 0
- Treatment-related TEAE: Myalgia, participants n (%) [1]: 0
- Treatment-related TEAE: Nervous system disorders, participants n (%) [1]: 0
- Treatment-related TEAE: Oropharyngeal pain, participants n (%) [1]: 0
- Treatment-related TEAE: Orthostatic hypotension, participants n (%) [1]: 0
- Treatment-related TEAE: Phlebitis, participants n (%) [1]: 0
- Treatment-related TEAE: Respiratory, Thoracic, and Mediastinal disorders, participants n (%) [1]: 0
- Treatment-related TEAE: Skin and Subcutaneous Tissue Disorders, participants n (%) [1]: 0
- Treatment-related TEAE: Thrombocytopenia, participants n (%) [1]: 0
- Treatment-related TEAE: Vascular Disorders, participants n (%) [1]: 0
- Treatment-related TEAE: Vessel puncture site erythema, occurrences m [1]: 1
- Treatment-related TEAE: Vessel puncture site erythema, participants n (%) [1]: 1 (16.7%)
- Treatment-related TEAE: Vessel puncture site pain, participants n (%) [1]: 0
- Treatment-related TEAE: Vomiting, participants n (%) [1]: 0
- Infusion related reaction: End Date/Time [2]: Day 1/6 hours
- Infusion related reaction: Severity Grade [2]: Grade 1
- Number of Participants Reporting at least: One Dose-Limiting Toxicity, n (%) (Cohort 2: […] IV 1-hr infusion (N = 6)): 0
- Number of Participants Reporting at least: One Dose-Limiting Toxicity, n (%) (Cohort 3: […] IV 1-hr infusion (N = 5)): 0
- Number of Participants Reporting at least: One Dose-Limiting Toxicity, n (%) (Cohort 3b: […] IV 2-hr infusion (N = 6)): 0
- Severity of event: Localized IRR at right arm and shoulder ache [3]: Grade 1
- Severity of event: Myalgia [3]: Grade 1
- participants with IRRs (Cohort 4, 0.5 mg/kg over 2 hours in 250 mL): 3
- IRRs, events (Cohort 4, 0.5 mg/kg over 2 hours in 250 mL, all Grade 1, no study drug interruption): 4
- Number of Participants Reporting at least: Onc TEAE Leading to Study Withdrawal, n (%) (Cohort 4: 0.5 mg/kg IV 2-hr infusion (N = 6)): 0

— patent US20240115654A1, “INTRAVENOUS ADMINISTRATION OF ENGINEERED ANTIMICROBIAL AMPHIPHILIC PEPTIDES” (priority 2021, published 2024)
